Holding throughout (type): cell-based
Assay [1] deals with T1, human cloned CHRM2 receptor (Homo sapiens, UniProt P08172).
T1 construct: expressed in transfected cells; host or cells: CHO-K1 (M2_CHO)
T1 sequence (P08172 1-466): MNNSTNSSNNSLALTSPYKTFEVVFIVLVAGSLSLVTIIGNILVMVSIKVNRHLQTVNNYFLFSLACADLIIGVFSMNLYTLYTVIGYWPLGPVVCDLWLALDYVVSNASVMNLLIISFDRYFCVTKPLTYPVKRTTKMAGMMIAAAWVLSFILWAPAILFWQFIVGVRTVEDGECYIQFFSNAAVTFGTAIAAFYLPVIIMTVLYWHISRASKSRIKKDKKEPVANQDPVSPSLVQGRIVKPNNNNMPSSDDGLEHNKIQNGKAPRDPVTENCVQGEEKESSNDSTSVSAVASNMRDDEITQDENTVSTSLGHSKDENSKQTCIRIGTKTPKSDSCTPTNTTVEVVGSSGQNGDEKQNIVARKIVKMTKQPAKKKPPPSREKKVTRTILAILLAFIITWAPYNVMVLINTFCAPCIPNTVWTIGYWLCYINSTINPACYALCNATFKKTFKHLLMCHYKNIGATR
Nature of the assay: CHRM2 Ca++ Flux Assay (M2_CHO cells, agonist mode). Conditions: M2 CHO cells; for EC50: agonist mode, geometric mean if tested more than once, read-out: M2 FDSS EC50; for Emax: read-out: M2 FDSS PA %. Put shortly:
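Agonist activity was expressed as percent of the carbachol EC100 response, fitted by four-parameter regression on triplicate wells, with geometric means across repeat runs. Calcium traces over 3 minutes came from dye-loaded M2_CHO cells (12K/well) pre-incubated 60 min in Ca/Mg-free HBSS with 20 mM HEPES, 2.5 mM probenecid and 20 μM ATP.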

Assay [2] concerns the target T2, human cloned CHRM5 receptor (Homo sapiens, UniProt P08912).
T2 construct: expressed in transfected cells; host or cells: CHO (M5_CHO)
T2 sequence (P08912 1-532): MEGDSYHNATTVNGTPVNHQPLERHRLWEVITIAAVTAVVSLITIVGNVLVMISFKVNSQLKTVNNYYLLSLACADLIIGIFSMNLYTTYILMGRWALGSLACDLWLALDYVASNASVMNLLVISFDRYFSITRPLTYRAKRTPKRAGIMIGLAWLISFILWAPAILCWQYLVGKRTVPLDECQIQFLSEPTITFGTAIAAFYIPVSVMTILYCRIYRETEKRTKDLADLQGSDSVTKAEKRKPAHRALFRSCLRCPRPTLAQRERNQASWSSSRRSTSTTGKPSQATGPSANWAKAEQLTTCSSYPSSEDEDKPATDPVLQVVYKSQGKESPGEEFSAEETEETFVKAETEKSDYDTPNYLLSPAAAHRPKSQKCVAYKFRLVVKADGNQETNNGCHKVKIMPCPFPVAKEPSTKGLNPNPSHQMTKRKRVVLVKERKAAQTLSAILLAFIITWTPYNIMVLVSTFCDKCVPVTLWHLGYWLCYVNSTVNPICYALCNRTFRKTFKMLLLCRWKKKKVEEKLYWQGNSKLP
Nature of the assay: CHRM5 Ca++ Flux Assay (M5_CHO cells, agonist mode). Conditions: for Emax: read-out: M5 FDSS PA %; for EC50: agonist mode, geometric mean if tested more than once, read-out: M5 FDSS EC50. Put shortly:
(§1)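 Agonist-mode calcium mobilisation: compounds, 11 concentrations in triplicate, applied to stable M3_CHO or M5_CHO cells loaded with Ca++ dye, fluorescence followed 3 min. Efficacy expressed against carbachol EC100; EC curves by four-parameter nonlinear regression, geometric mean across independent runs.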

Assay [3] addresses T3, human cloned CHRM3 receptor (Homo sapiens, UniProt P20309).
T3 construct: expressed in transfected cells; host or cells: CHO-K1 (M3_CHO)
Nature of the assay: CHRM3 Ca++ Flux Assay (M3_CHO cells, agonist mode). Particulars: for Emax: read-out: M3 FDSS PA %; for EC50: agonist mode, geometric mean if tested more than once, read-out: M3 FDSS EC50. Summed up: as §1

Setting [4] is: Percent Activity (PA) measured to EC100 of Carbachol.

The text below walks through data of patent US11485742B2, “2-azaspiro[3.4]octane derivatives as M4 agonists” (NOVARTIS AG, priority 2019, dated 2022).

T3 sequence (P20309 whole entry): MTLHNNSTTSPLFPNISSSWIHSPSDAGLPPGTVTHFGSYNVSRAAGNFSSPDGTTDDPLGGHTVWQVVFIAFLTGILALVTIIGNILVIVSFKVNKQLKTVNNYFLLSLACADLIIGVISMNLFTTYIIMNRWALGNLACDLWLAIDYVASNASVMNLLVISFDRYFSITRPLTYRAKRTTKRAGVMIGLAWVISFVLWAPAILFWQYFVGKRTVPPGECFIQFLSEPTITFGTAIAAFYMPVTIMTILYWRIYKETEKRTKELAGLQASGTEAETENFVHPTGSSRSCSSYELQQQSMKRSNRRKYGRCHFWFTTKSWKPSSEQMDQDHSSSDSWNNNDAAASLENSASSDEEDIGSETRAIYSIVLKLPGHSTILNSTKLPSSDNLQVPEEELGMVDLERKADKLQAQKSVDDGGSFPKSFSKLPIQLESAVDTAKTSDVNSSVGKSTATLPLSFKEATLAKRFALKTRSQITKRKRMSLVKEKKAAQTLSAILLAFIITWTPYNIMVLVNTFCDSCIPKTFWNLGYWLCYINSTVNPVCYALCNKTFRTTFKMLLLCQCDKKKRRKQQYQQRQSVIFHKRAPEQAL

Broadly, the EC50 is the midpoint of the concentration-response curve. As for `COc1ccccc1C1CCN([C@@H]2COC3(C2)CN(c2ncns2)C3)CC1` [Example 5B, (S)-7-(4-(2-methoxyphenyl)piperidin-1-yl)-2-(1,2,4-thiadiazol-5-yl)-5-oxa-2-azaspiro[3.4]octane], the EC50 in assay [1], in assay [2] and in assay [3] was above 25 µM throughout. Also, the Emax in assay [1] (setting [4]), in assay [2] (setting [4]) and in assay [3] (setting [4]) was 0% in each case.
Regarding `CC(C)(O)COc1ccc(F)cc1C1CCN([C@@H]2COC3(C2)CN(c2ncco2)C3)CC1` [Example 4K, (S)-1-(4-fluoro-2-(1-(2-(oxazol-2-yl)-5-oxa-2-azaspiro[3.4]octan-7-yl)piperidin-4-yl)phenoxy)-2-methylpropan-2-ol], the concentration for a half-maximal effect (EC50) in assay [1], in assay [2] and in assay [3] was above 25 µM throughout. The Emax in assay [1] (setting [4]), in assay [2] (setting [4]) and in assay [3] (setting [4]) was 0% each time.
In the case of `Fc1ccc(O[C@H]2CCOC2)c(C2CCN([C@@H]3COC4(C3)CN(c3nnco3)C4)CC2)c1` [Example 1H, (S)-7-(4-(5-fluoro-2-(((S)-tetrahydrofuran-3-yl)oxy)phenyl)piperidin-1-yl)-2-(1,3,4-oxadiazol-2-yl)-5-oxa-2-azaspiro[3.4]octane], the concentration for a half-maximal effect (EC50) in assay [1] is 0.801 µM; in assay [2], above 25 µM; in assay [3], above 25 µM. The results for the Emax in assay [1] (setting [4]), in assay [2] (setting [4]) and in assay [3] (setting [4]) were 30%, 0% and 0%, respectively.
As to `Fc1ccc(OC2COC2)c(C2CCN([C@@H]3COC4(C3)CN(c3ncco3)C4)CC2)c1` [Example 4A, (S)-7-(4-(5-fluoro-2-(oxetan-3-yloxy)phenyl)piperidin-1-yl)-2-(oxazol-2-yl)-5-oxa-2-azaspiro[3.4]octane], the results for the EC50 in assay [1], in assay [2] and in assay [3] were 0.432 µM, above 25 µM and above 25 µM, respectively. Besides, the Emax was 21% in assay [1] (setting [4]), 0% in assay [2] (setting [4]) and 0% in assay [3] (setting [4]).
Consider `Fc1cc(F)c(O[C@@H]2CCOC2)c(C2CCN([C@@H]3COC4(C3)CN(c3nnco3)C4)CC2)c1` [Example 2CC, (S)-7-(4-(3,5-difluoro-2-(((R)-tetrahydrofuran-3-yl)oxy)phenyl)piperidin-1-yl)-2-(1,3,4-oxadiazol-2-yl)-5-oxa-2-azaspiro[3.4]octane], for which the EC50 in assay [1] was 2.07 µM; in assay [2], above 25 µM; in assay [3], above 25 µM. The Emax in assay [1] (setting [4]) was found to be 37%; in assay [2] (setting [4]), 0%; in assay [3] (setting [4]) it was 0%.
Regarding `Fc1ccc(OC2CCOCC2)c(C2CCN([C@@H]3COC4(C3)CN(c3nnco3)C4)CC2)c1` [Example 1G, (S)-7-(4-(5-fluoro-2-((tetrahydro-2H-pyran-4-yl)oxy)phenyl)piperidin-1-yl)-2-(1,3,4-oxadiazol-2-yl)-5-oxa-2-azaspiro[3.4]octane], the EC50 in assay [1] was 1.25 µM; in assay [2] it was above 25 µM; in assay [3], above 25 µM. Moreover, the Emax in assay [1] (setting [4]) stood at 35%; in assay [2] (setting [4]) it was 0%; in assay [3] (setting [4]) it was 0%.
As for `O[C@H]1CC[C@@H](c2ccc(F)cc2C2CCN([C@@H]3COC4(C3)CN(c3nnco3)C4)CC2)CC1` (single isomer, unassigned) [Example 3I, (1R,4s)-4-(2-(1-((S)-2-(1,3,4-oxadiazol-2-yl)-5-oxa-2-azaspiro[3.4]octan-7-yl)piperidin-4-yl)-4-fluorophenyl)cyclohexan-1-ol or (1S,4r)-4-(2-(1-((S)-2-(1,3,4-oxadiazol-2-yl)-5-oxa-2-azaspiro[3.4]octan-7-yl)piperidin-4-yl)-4-fluorophenyl)cyclohexan-1-ol], the EC50 was 3.86 µM in assay [1], above 25 µM in assay [2] and above 25 µM in assay [3]. Moreover, the “M2 FDSS PA %” value in assay [1] (setting [4]) was determined as 32%. In assay [2] (setting [4]), the “M5 FDSS PA %” value is recorded as 0%. Also, the “M3 FDSS PA %” value in assay [3] (setting [4]) stood at 0%.
Turning to `COCCOc1ccc(F)cc1C1CCN([C@@H]2COC3(C2)CN(c2nncs2)C3)CC1` [Example 5S, (S)-7-(4-(5-fluoro-2-(2-methoxyethoxy)phenyl)piperidin-1-yl)-2-(1,3,4-thiadiazol-2-yl)-5-oxa-2-azaspiro[3.4]octane], the EC50 is 4.6 µM in assay [1], above 25 µM in assay [2] and above 25 µM in assay [3]. In addition, the Emax came out at 23% in assay [1] (setting [4]), 0% in assay [2] (setting [4]) and 0% in assay [3] (setting [4]).
In the case of `Fc1ccc(OC[C@H]2COCCO2)c(C2CCN([C@@H]3COC4(C3)CN(c3nnco3)C4)CC2)c1` [Example 1C], the EC50 in assay [1] was 0.503 µM; in assay [2] it was above 25 µM; in assay [3], above 25 µM. Also, the Emax in assay [1] (setting [4]) was found to be 29%; in assay [2] (setting [4]), 0%; in assay [3] (setting [4]), 0%.
In the case of `CC(C)(C#N)COc1ccc(F)cc1C1CCN([C@@H]2COC3(C2)CN(c2nnco2)C3)CC1` [Example 1E, (S)-3-(2-(1-(2-(1,3,4-oxadiazol-2-yl)-5-oxa-2-azaspiro[3.4]octan-7-yl)piperidin-4-yl)-4-fluorophenoxy)-2,2-dimethylpropanenitrile], the EC50 was 0.557 µM in assay [1], above 25 µM in assay [2] and above 25 µM in assay [3]. Also, the results for the Emax in assay [1] (setting [4]), in assay [2] (setting [4]) and in assay [3] (setting [4]) were 32%, 0% and 0%, respectively.
As for `CC(C)(O)COc1ccc(F)cc1C1CCN([C@@H]2COC3(C2)CN(c2ncns2)C3)CC1` [Example 5C, (S)-1-(2-(1-(2-(1,2,4-thiadiazol-5-yl)-5-oxa-2-azaspiro[3.4]octan-7-yl)piperidin-4-yl)-4-fluorophenoxy)-2-methylpropan-2-ol], the concentration for a half-maximal effect (EC50) in assay [1], in assay [2] and in assay [3] was above 25 µM in each case. Besides, the Emax was found to be 0% in assay [1] (setting [4]), 4% in assay [2] (setting [4]) and 0% in assay [3] (setting [4]).
With `Fc1ccc(O[C@@H]2CCOC2)c(C2CCN([C@@H]3COC4(C3)CN(c3nncs3)C4)CC2)c1` [Example 5H, (S)-7-(4-(5-fluoro-2-(((R)-tetrahydrofuran-3-yl)oxy)phenyl)piperidin-1-yl)-2-(1,3,4-thiadiazol-2-yl)-5-oxa-2-azaspiro[3.4]octane], the EC50 in assay [1] is 0.443 µM; in assay [2], above 25 µM; in assay [3], above 25 µM. Moreover, the Emax in assay [1] (setting [4]) was 40%; in assay [2] (setting [4]), 0%; in assay [3] (setting [4]) it was 0%.
On to `COCCOc1ccc(F)cc1C1CCN([C@@H]2COC3(C2)CN(c2ncns2)C3)CC1` [Example 5D, (S)-7-(4-(5-fluoro-2-(2-methoxyethoxy)phenyl)piperidin-1-yl)-2-(1,2,4-thiadiazol-5-yl)-5-oxa-2-azaspiro[3.4]octane], for which the EC50 in assay [1], in assay [2] and in assay [3] was above 25 µM each time. The Emax in assay [1] (setting [4]), in assay [2] (setting [4]) and in assay [3] (setting [4]) was 0% throughout.
As to `c1ccc(C2CCN([C@@H]3COC4(C3)CN(c3nnco3)C4)CC2)c(CC2CCOCC2)c1` [Example 3G, (S)-2-(1,3,4-oxadiazol-2-yl)-7-(4-(2-((tetrahydro-2H-pyran-4-yl)methyl)phenyl)piperidin-1-yl)-5-oxa-2-azaspiro[3.4]octane], the figures for the concentration giving a half-maximal response (EC50) in assay [1], in assay [2] and in assay [3] were 3.66 µM, above 25 µM and above 25 µM, respectively. Moreover, the Emax was 16% in assay [1] (setting [4]), 0% in assay [2] (setting [4]) and 0% in assay [3] (setting [4]).
